Measurements published in patent US20200281208A1 (ISAGRO S.p.A., priority 2015, published 2020).
Read-outs that look alike come from different tables or passages of the source.

Columns and labels:
Assay type in all cases: in vivo
[1] = system: Pseudomonas syringae pv tomato; assay: Biological evaluation of cupric salts of carboxylic acids on Pseudomonas syringae pv tomato, tomato plants in cold greenhouse (Example 10, comparative); details: 250 ppm a.i., survey 7 days after infection/treatment, 10 plants per plot
Source text: Biological Evaluation of Cupric Salts of Carboxylic Acids on Pseudomonas syringae pv tomato
A comparison was effected between the bactericidal activity of various cupric salts of carboxylic acids described in patent application US2009/136581 with that of crystalline foiin 1.
(§1) The day after application, the plants were infected with a suspension of bacterial cells previously cultivated in Nutrient Broth culture broth, at a bacterium-broth concentration of 1:4.
(§2) The inoculum, kept under stirring for 2 days, was sprayed on the plants in the morning, in guttation phase, with knapsack sprayers.
(§3) Visual surveys were effected 7 days after each infection/treatment, analyzing 10 plants per plot, analyzing the percentage of leaf surface affected.

Tomato plants = assay: Phytotoxicity on treated tomato plants (Example 10, comparative); details: 250 ppm a.i.
Source text: as §3

[2] = system: Pseudomonas syringae pv tomato; details: survey 7 days after infection/treatment; for Leaf surface affected (%): tomato plants
Source text: Biological Evaluation of the […] of […] on Pseudomonas syringae pv tomato
In the above table, SC is an abbreviation of “concentrated aqueous suspension” and TQ of “as such”.
as §1, §2
Visual surveys were effected 7 days after each infection/treatment, analyzing 50 plants per plot, analyzing the percentage of plants infected and the percentage of leaf surface affected.

SMILES: O=C(O)CCCC(=O)O.[Cu] [Copper glutarate]
- Leaf surface affected (%) [1]: 69%
- Phytotoxicity (%) (Tomato plants): 0%

SMILES: O=C(O)CC(O)C(=O)O.[Cu] (centres unmarked) [Copper malate]
- Leaf surface affected (%) [1]: 5%
- Phytotoxicity (%) (Tomato plants): 20%

SMILES: O=C(O)CCC(=O)O.[Cu] [Copper succinate]
- Leaf surface affected (%) [1]: 50%
- Phytotoxicity (%) (Tomato plants): 0%

SMILES: O=C([O-])C(O)C(O)C(=O)[O-].[Cu+2] (centres unmarked) [Copper tartrate]
- Leaf surface affected (%) [1]: 69%
- Phytotoxicity (%) (Tomato plants): 0%

SMILES: [Cu+2].[OH-].[OH-] [Cu(OH)2, copper hydroxide]
- Quantity infected plants (%) ([2]; 6.25 g a.i./100 l): 37.5%
- Quantity infected plants (%) ([2]; 12.5 g a.i./100 l): 35.7%
- Quantity infected plants (%) ([2]; 25 g a.i./100 l, 500 l per hectare, 50 plants per plot): 31.0%
- Leaf surface affected (%) ([2]; 6.25 g a.i./100 l): 3.4%
- Leaf surface affected (%) ([2]; 12.5 g a.i./100 l): 4.9%
- Leaf surface affected (%) ([2]; 25 g a.i./100 l, 500 l per hectare): 3.9%

SMILES: O=C(O)c1ccccc1O [Salicylic acid]
- Quantity infected plants (%) ([2]; 13.6 g a.i./100 l): 40.7%
- Quantity infected plants (%) ([2]; 27.2 g a.i./100 l): 31.5%
- Quantity infected plants (%) ([2]; 54.2 g a.i./100 l): 36.3%
- Leaf surface affected (%) ([2]; 13.6 g a.i./100 l): 4.7%
- Leaf surface affected (%) ([2]; 27.2 g a.i./100 l): 3.9%
- Leaf surface affected (%) ([2]; 54.2 g a.i./100 l): 3.5%
